pEC50, pIC50: −log10 of the molar value. Where two headings read alike, the source gives them in different places.
Experiments:
VSV = test: microbe, parasite or virus in culture; assay type: cell-based; conditions: Vesicular stomatitis virus, read-out: EC50 (nM) VSV
SARS-CoV-2 [1] = test: microbe, parasite or virus in culture; conditions: for inhibition at 2 µM: Severe acute respiratory syndrome coronavirus 2, 48 h
[2] = Cytotoxicity evaluation using the SRB assay; conditions: human, triplicate
AIV = test: microbe, parasite or virus in culture; assay type: cell-based, avian influenza virus (H5N1); conditions: Influenza A virus, read-out: EC50 (nM) AIV
SARS-CoV-2 [3] = tested on: SARS-CoV-2
HIV = test: microbe, parasite or virus in culture; assay type: cell-based, HIV-1
in vitro = conditions: human
[4] = read-out: EC50 (2000 nM) SARS-COV-2, % inhibitory effect at 2000 nM against SARS-CoV-2, triplicate
[5] = CC50 (nM) A549, Table 2, host A549 cells
[6] = CC50 (nM), Table 1, inhibition of cell growth of host A549 cells by 50%
[7] = A549 cells, CC50 (nM), Table 1, inhibition of cell growth of host A549 cells by 50%
[8] = read-out: EC50 (2000 nM) SARS-COV-2
[9] = A549 cells, CC50 (nM) A549, Table 2, host A549 cells

Row | Compound | EC50 (VSV) | inhibition at 2 µM (SARS-CoV-2 [1]; [4]) | CC50 at 2 days [2, 6] | EC50 (AIV) | pEC50 (HIV; Human immunodeficiency virus 1) | further results
1 | COc1cc2c(O[C@H]3OC[C@@]4(CN)OC(C)(C)O[C@@H]34)c3c(c(-c4ccc5c(c4)OCO5)c2cc1OC)C(=O)OC3 [Compound 26] | 0.58 nM | > 80% | 4550 nM | 0.79 nM | 6.04 | CC50 at 2 days [2, 5]: 2.66 nM; activity against SARS-CoV-2 (conclusion) (SARS-CoV-2 [3]): active molecules
2 | Cc1ccnc2c1NC(=O)c1cccnc1N2C1CC1 [Nevirapine, reference compound] | – | – | > 200 nM | – | 7.45 | –
3 | COc1cc2c(OC3OC[C@@]4(CO[Si](c5ccccc5)(c5ccccc5)C(C)(C)C)OC(c5ccccc5)O[C@@H]34)c3c(c(-c4ccc5c(c4)OCO5)c2cc1OC)C(=O)OC3 (stereo partly shown) [Compound 16] | – | 32.4% | – | – | 5.18 | CC50 at 2 days [2, 7]: > 20000 nM
4 | CCOC(=O)c1c(CSc2ccccc2)n(C)c2cc(Br)c(O)c(CN(C)C)c12 [arbidol, reference compound] | – | – | – | – | – | pIC50 (SARS-CoV-2 [1]; Severe acute respiratory syndrome coronavirus 2, HepG2, read-out: IC50 against SARS-CoV-2 pseudovirion): 5.28
5 | COc1cc2c(O[C@H]3OC[C@@]4(CO)OC(c5ccccc5)O[C@@H]34)c3c(c(-c4cc5c(cc4OCc4ccccc4)OCO5)c2cc1OC)C(=O)OC3 (stereo partly shown) [Compound 44] | – | – | – | – | < 4.60 | CC50 at 2 days [2, 7]: > 25000 nM
6 | COc1cc2c(O[C@@H]3OC[C@@]4(COC(C)=O)OC(C)(C)O[C@@H]34)c3c(c(-c4ccc5c(c4)OCO5)c2cc1OC)C(=O)OC3 [Compound 11] | – | > 80% | 1260 nM | – | 6.68 | activity against SARS-CoV-2 (conclusion) (SARS-CoV-2 [3]): active molecules
7 | COc1cc2c(O[C@H]3OC[C@@]4(COC(C)=O)OC(c5ccccc5)O[C@@H]34)c3c(c(-c4ccc5c(c4)OCO5)c2cc1OC)C(=O)OC3 (stereo partly shown) [Compound 21] | 12 nM | 96.3% | 328 nM | 6.25 nM | 6.90 | CC50 at 2 days [2, 5]: 93 nM
8 | COc1cc2c(O[C@H]3OC[C@@]4(CN(C)C)OC(C)(C)O[C@@H]34)c3c(c(-c4ccc5c(c4)OCO5)c2cc1OC)C(=O)OC3 [Compound 31] | – | 91.9% | 1400 nM | – | 6.75 | –
9 | COc1cc2c(O[C@H]3OC[C@@]4(CO)OC(C)(C)O[C@@H]34)c3c(c(-c4ccc5c(c4)OCO5)c2cc1OC)C(=O)OC3 [Compound 10] | 1.5 nM | 95.6% | 188 nM | 0.75 nM | 9.01 | CC50 at 2 days [2, 5]: 400 nM
10 | COc1cc2c(O[C@H]3OC[C@@]4(COC(C)=O)OC(C)(C)O[C@@H]34)c3c(c(-c4ccc5c(c4)OCO5)c2cc1OC)C(=O)OC3 [Compound 12] | – | 96.3% | 472 nM | – | 7.57 | activity against SARS-CoV-2 (conclusion) (SARS-CoV-2 [3]): active molecules
11 | COc1cc2c(O[C@H]3OC[C@@]4(COC(=O)c5ccncc5)OC(C)(C)O[C@@H]34)c3c(c(-c4ccc5c(c4)OCO5)c2cc1OC)C(=O)OC3 [Compound 28] | 56.1 nM | – | – | 16.7 nM | 6.31 | CC50 at 2 days (in vitro; CC50 (nM)): 2210 nM; CC50 at 2 days (in vitro; CC50 (nM) A549): 560 nM; inhibition at 2 µM (SARS-CoV-2 [1]; [8]): 93%
12 | COc1cc2c(O[C@@H]3OC[C@@]4(CO)OC(C)(C)O[C@@H]34)c3c(c(-c4ccc5c(c4)OCO5)c2cc1OC)C(=O)OC3 [Compound 9] | – | > 80% | 1180 nM | – | 7.46 | activity against SARS-CoV-2 (conclusion) (SARS-CoV-2 [3]): active molecules
13 | COc1cc2c(O[C@H]3OC[C@@]4(CN5CCOCC5)OC(C)(C)O[C@@H]34)c3c(c(-c4ccc5c(c4)OCO5)c2cc1OC)C(=O)OC3 [Compound 30] | – | – | – | – | 7.74 | CC50 at 2 days (in vitro; CC50 (nM)): 1190 nM; inhibition at 2 µM (SARS-CoV-2 [1]; [8]): 92.7%
14 | COc1cc2c(OC3OCC(O)(CO)C3OC3OCC(O)C(O)C3O)c3c(c(-c4cc5c(cc4O)OCO5)c2cc1OC)C(=O)OC3 (single isomer, unassigned) [Compound 49] | – | – | – | – | – | CC50 at 2 days (in vitro; CC50 (nM)): 23500 nM; pEC50 (HIV): 5.26; antiviral activity of R atropisomer versus corresponding S atropisomer (HIV): much more potent antiviral activities
15 | COc1cc2c(OC3OC[C@@]4(CO[Si](c5ccccc5)(c5ccccc5)C(C)(C)C)OC(c5ccccc5)O[C@@H]34)c3c(c(-c4cc5c(cc4OCc4ccccc4)OCO5)c2cc1OC)C(=O)OC3 (stereo partly shown) [Compound 42] | – | – | – | – | < 4.60 | CC50 at 2 days [2, 7]: > 25000 nM
16 | COc1cc2c(O)c3c(c(-c4ccc5c(c4)OCO5)c2cc1OC)C(=O)OC3 [Diphyllin (7), diphyllin, reference compound] | 11.2 nM | – | – | 2.36 nM | 6.77 | CC50 at 2 days (in vitro; CC50 (nM)): 2460 nM; CC50 at 2 days (in vitro; CC50 (nM) A549): 1980 nM; inhibition at 2 µM (SARS-CoV-2 [1]; [8]): 94.6%
17 | COc1cc2c(OC3OCC(O)(CO)C3O)c3c(c(-c4cc5c(cc4O)OCO5)c2cc1OC)C(=O)OC3 (single isomer, unassigned) [Compound 45] | – | – | – | – | – | CC50 at 2 days (in vitro; CC50 (nM)): 46800 nM; pEC50 (HIV): 5.56; antiviral activity of R atropisomer versus corresponding S atropisomer (HIV): much more potent antiviral activities
18 | COc1cc2c(OC3OCC(O)(COC4OCC(O)C(O)C4O)C3OC3OCC(O)C(O)C3O)c3c(c(-c4cc5c(cc4O)OCO5)c2cc1OC)C(=O)OC3 (single isomer, unassigned) [Compound 51] | – | – | > 25000 nM | – | 4.80 | antiviral activity of R atropisomer versus corresponding S atropisomer (HIV): much more potent antiviral activities
19 | COc1cc2c(O[C@H]3OC[C@@]4(COC(=O)c5cccnc5)OC(C)(C)O[C@@H]34)c3c(c(-c4ccc5c(c4)OCO5)c2cc1OC)C(=O)OC3 [Compound 29] | 19.9 nM | 95.6% | – | 8.66 nM | 7.04 | CC50 at 2 days [2, 9]: 483 nM; CC50 at 2 days [2, 7]: 381 nM
20 | COc1cc2c(O[C@@H]3OC[C@@]4(CO)OC(c5ccccc5)O[C@@H]34)c3c(c(-c4cc5c(cc4OCc4ccccc4)OCO5)c2cc1OC)C(=O)OC3 (stereo partly shown) [Compound 43] | – | – | – | – | < 4.60 | CC50 at 2 days [2, 7]: > 25000 nM
21 | COc1cc2c(O[C@H]3OC[C@@]4(CO)OC(c5ccccc5)O[C@@H]34)c3c(c(-c4ccc5c(c4)OCO5)c2cc1OC)C(=O)OC3 (stereo partly shown) [Compound 18] | 2.43 nM | 98.3% | – | 0.71 nM | 8.13 | CC50 at 2 days [2, 9]: 208 nM; CC50 at 2 days [2, 7]: 184 nM
22 | COc1cc2c(OC3OCC(O)(COC4OCC(O)C(O)C4O)C3OC3OCC(O)C(OC4OCC(O)(CO)C4O)C3O)c3c(c(-c4cc5c(cc4O)OCO5)c2cc1OC)C(=O)OC3 (single isomer, unassigned) [Compound 53] | – | – | – | – | 4.83 | CC50 at 2 days (in vitro; CC50 (nM)): > 25000 nM; antiviral activity of R atropisomer versus corresponding S atropisomer (HIV): much more potent antiviral activities
23 | COc1cc2c(O[C@H]3OC[C@](O)(CO)[C@H]3O)c3c(c(-c4ccc5c(c4)OCO5)c2cc1OC)C(=O)OC3 [Compound 19] | 144 nM | 98.3% | 368 nM | 70 nM | 7.92 | CC50 at 2 days [2, 5]: 2100 nM
24 | COc1cc2c(O[C@H]3OC[C@](O)(COC(C)=O)[C@H]3O)c3c(c(-c4ccc5c(c4)OCO5)c2cc1OC)C(=O)OC3 [Compound 23] | 1.24 nM | 96.7% | 736 nM | 0.3 nM | 7.36 | CC50 at 2 days [2, 5]: 158 nM
25 | COc1cc2c(O[C@@H]3OC[C@@]4(CO)OC(c5ccccc5)O[C@@H]34)c3c(c(-c4ccc5c(c4)OCO5)c2cc1OC)C(=O)OC3 (stereo partly shown) [Compound 17] | – | 66.2% | – | – | 6.60 | CC50 at 2 days [2, 7]: 2240 nM

Reference: patent US20240076299A1, “TUBERCULATIN ANALOGS AS ANTIVIRAL AGENTS” (priority 2020, published 2024)
